Experimental data from US10391086B2, “Use of EP4 receptor antagonists in the treatment of cartilage disease” (AskAt Inc., priority 2013, dated 2019).

System: bovine full-depth cartilage explants
Experiment: Ex vivo bovine cartilage explant model
Type: cell-based
Details: serum-free culture, biomarkers (P2NP, C2M, AGNx1, AGNx2) in supernatant at day 7, 14 and 21, FIG. 1 (C2M) and FIG. 2 (AGNx2), oncostatin M + TNF-alpha
Protocol: The method of this assay is descrived in the following literature (Rheumatol Int. 2013 February; 33(2):401-11).
Full-depth cartilage explants were harvested from the knee of either back legs of a cow less than 24 month old. All the FDC explants are divided into different treatment group according to the explants weight and metabolic activity (viability) measured by Alamar Blue. Compounds were freshly added to the explants at each media change. The explants were cultured in serum-free conditions. Supernatants retrieved from the culture were analyzed by biomarkers (P2NP, C2M, AGNx1, AGNx2) at day 7, 14 and 21.

Row | Structure (SMILES) | inhibition of cartilage destruction
1 | CCc1nc2c(C)nc(C)cc2n1-c1ccc(CCNC(=O)NS(=O)(=O)c2ccc(C)cc2)cc1 [Compound A, 3-[2-(4-{2-ethyl-4,6-dimethyl-1H-imidazo[4,5-c]pyridin-1-yl}phenyl)ethyl]-1-[(4-methylbenzene)sulfonyl]urea] | dose-dependent inhibition of cartilage destruction
2 | C[C@H](NC(=O)c1cc(Cl)cnc1Oc1cccc(F)c1)c1ccc(C(=O)O)cc1 [Compound B, 4-[(1S)-1-({[5-chloro-2-(3-fluorophenoxy)pyridin-3-yl]carbonyl}amino)ethyl]benzoic acid] | dose-dependent inhibition of cartilage destruction
